One compound from article PMC9011347, “Small-Molecule Inhibitors Targeting Lipolysis in Human Adipocytes” (Journal of the American Chemical Society, 2022) can be followed below.

The experiment has as its system human Simpson–Golabi–Behmel syndrome (SGBS) adipocytes. The experiment is described as follows: Lipolysis in SGBS adipocytes (FA, glycerol release, DAG content). It counts as cell-based. The following applies: for IC50: Homo sapiens, 1 h preincubation, isoproterenol 1 μM. As to the method: Figure 3 NG-497 inhibits lipolysis in human SGBS and primary human adipocytes. SGBS adipocytes were preincubated with NG-497 for 1 h at the indicated concentrations. Subsequently, lipolysis was stimulated with isoproterenol (1 μM) and (a) FA and (b) glycerol release was determined after 1 h using commercial kits. (c) Dose-dependent inhibition of isoproterenol-stimulated FA release from SGBS adipocytes by the HSL inhibitor 76-068 (HSLi). […] (e) DAG accumulation in SGBS adipocytes was analyzed by thin-layer chromatography (TLC) following 1 h incubation with HSLi (25 μM), NG-497 (40 μM), and a combination of both inhibitors. (f) Primary human adipocytes were prelabeled with 1 μCi [9,10-^3H] oleic acid per well for 12 h. Subsequently, basal and Forskolin (5 μM)-stimulated release of radioactivity was determined via liquid scintillation over a period of 2 h in the presence or absence of NG-497 (40 μM). FA release was calculated based on FA concentrations in conditioned media after 2 h as determined using a commercial kit. (g) Primary human adipocytes were preincubated in the presence or absence of NG-497 (40 μM) for 1 h. Subsequently, the medium was changed and FA release was monitored over a period of 3 h under the indicated conditions. Data are presented as mean ± SD. Statistical significance was determined via ANOVA followed by Bonferroni post hoc test (^#p < 0.05; ^##p < 0.01; ^###p < 0.001). TEXT PRINTED IN THE PICTURE: (a) NG-497: IC50 (μM) 1.5 ± 0.5 | (b) NG-497: IC50 (μM) 1.5 ± 0.5 | (c) HSLi: IC50 (nM) 100 ± 15 | (d) NG-497: IC50 (μM) 0.5 ± 0.1 […]
Lipidomic analysis. HepG2 cells were treated for 3 hours with 40 µM NG-497 or DMSO as control. Subsequently, cells were washed three times with PBS, harvested, and extracted with 700 µl MTBE:MeOH (10:3, v:v) for 1 hour at 4 °C on a Thermomix shaker at 1,400 rpm. 200 µl H2O were added, shaken for another 20 min, centrifuged for 10 min at 20,000 g for phase separation.
500 µl of the organic phase was transferred and evaporated under a stream of nitrogen. […] The aqueous phase was dried, the protein pellet incubated overnight with 400 µl NaOH/SDS (0.3 M/0.1%) and total protein content analyzed by the BCA protein assay (Thermo Fisher Scientific) according to the manufacturer’s instructions.
Lipid samples were separated on an Agilent 1290 Infinite II UHPLC with gradient elution over a Zorbax Extend-C18 reversed phase column (2.1 x 50 mm, 1.8µm) at 50°C. […] Samples were analyzed on an Agilent 6560 Ion Mobility Q-ToF mass spectrometer in Qtof-only mode over a scan range of 100 to 1700 m/z in negative mode and 150 to 1700 m/z in positive mode with automatic MS/MS generation. All samples were analyzed in triplicates using iterative acquisition mode to increase the number of MS/MS spectra for better annotation. […]

Molecules are shown by their SMILES. Where two headings read alike, the source gives them in different places.

One may read the IC50 as the concentration that gives 50% inhibition.

In the case of `CCOc1ccc(-c2cc(OC)cc(C(=O)OC(C)C)n2)cc1` [NG-497], the IC50 stood at 1500 nM (1 h, read-out: IC50 of isoproterenol-stimulated FA release) and 1500 nM (1 h, read-out: IC50 of isoproterenol-stimulated glycerol release). For the same compound, the “DAG accumulation under combined inhibition of HSL and ATGL” value (NG-497 40 μM combined with HSLi 25 μM, 1 h, TLC) is listed as “prevented DAG accumulation”. In addition, the effect on lipolysis result (concentrations ≥10 μM) is given as “almost completely abolished lipolysis”.
